Source: US20070275911A1, “Targeted Drug-Formaldehyde Conjugates and Methods of Making and Using the Same” (priority 2003, published 2007)
Where two headings read alike, the source gives them in different places.

What was measured:
MCF-7/ADR = test: Cytotoxicity, crystal violet colony assay (Example 1); type: cell-based, human; conditions: for IC50: 4 h treatment, read-out: IC50 cancer cell growth inhibition
Protocol: (§1) This cell suspension was dispensed in 200 μL aliquots into 96-well tissue culture plates. Plates were then incubated for 24 h at 37° C. in a humidified atmosphere of 5% CO2 and 95% air. The medium was replaced with 180 μL of growth medium prior to addition of the prodrug. Doxsaliform was dissolved in DMSO containing 1% glacial acetic acid at concentrations ranging from 1 mM to 10 mM and sterile-filtered through a 0.45 μm nylon centrifuge filter. The concentration was then corrected by measuring the solution absorbance at 480 nm (ε=11 500 L/(mol·cm). Serial dilutions (1:10) were made in sterile DMSO to yield seven solutions of decreasing drug concentration at 100× the respective working concentrations. The resulting solutions were individually diluted 1:10 in RPMI 1640; 20 μL of the resulting 10× solution was immediately added to the appropriate lane of cells. Additionally, two lanes were treated with 20 μL growth medium containing 10% sterile DMSO and one lane was treated with 200 μL of 1.5 M Tris buffer. The cells were incubated at 37° C. for 4 h, at which time the drug solutions were replaced with 200 μL of fresh growth medium. […] The extent of colony formation was determined using a crystal violet staining assay.
(§2) The biological activities of several of the N-Mannich base derivatives were determined by their in vitro cytotoxicity against MCF-7 and MCF-7/ADR human breast cancer derived cell lines. While MCF-7 cells are sensitive to doxorubicin, the MCF-7/ADR cell line is an MCF-7 derivative which is characterized by its marked resistance to doxorubicin.

MCF-7 = test: as above; type: cell-based, human; conditions: for IC50: MCF-7, 4 h treatment, read-out: IC50 cancer cell growth inhibition
Protocol: as §1, §2

MDA-MB-435 cells [1] = test: Growth inhibition assay (Example 6); type: cell-based, human; conditions: read-out: IC50 for inhibition of cell growth (nM), treatment time
Protocol: […] Cells were quantified via measuring crystal violet staining or cellular metabolism of MTT. For every experiment, each condition was performed in hexuplicate; experiments were performed at least twice.
Cancer cell growth inhibition: acyclic-RGD-4C-DOXSF and cyclic-(N-Me-VRGDf-NH)-DOXSF were also assayed for their ability to inhibit growth of MDA-MB-435 cells relative to DOX and DOXSF. Cells treated in cell culture plates and non-treated (-control) cells were allowed to grow to near confluency, and then quantified via measuring crystal violet staining or cellular metabolism of MTT. […] Earlier control experiments established that the miniscule amounts of formaldehyde that would be released even from complete hydrolysis of the conjugate would contribute nothing to the observed growth inhibition. Conjugation of cytotoxic drugs to triggers and targeting groups often causes a drop in cytotoxicity.

[2] = test system: PC-3 prostate cancer cells; test: Cytotoxicity, crystal violet colony assay (Example 1); type: cell-based; conditions: for IC50: PC-3, 4 h treatment, read-out: IC50 cancer cell growth inhibition
MDA-MB-435 cells [3] = test: Uptake of DOX, DOXSF and acyclic-RGD-4C-DOXSF by flow cytometry; type: cell-based, human; conditions: for RFU with 100 nM drug / RFU with 500 nM drug / RFU with 1000 nM drug: no additional Mn2+
Protocol: MDA-MB435 breast cancer cells in log phase growth were dissociated with trypsin-EDTA, counted, resuspended in media at 2×10^5 cells/mL, and plated into six-well plates (5.0×10^5 cells/well) and allowed to adhere overnight. Drug solutions of DOX, DOXSF, and ayclic-RGD-4C-DOXSF were prepared in DMSO with 1% acetic acid at 50 μM. Before treatment with drug, cell media was removed, cells were washed with HBSS (0.5 mL), and then fresh cell media, with or without 500 μM Mn^2+, was placed into the wells (2 mL). […] For each time point, the cell media was removed, cells were washed with HBSS, trypsinized, and trypsinization was quenched with 5 mL of cell media at 4° C. Cells were pelleted by centrifugation at 200 g for 5 min at 10° C. The supernatant was decanted, and the cells were resuspended in 5 mL of D-PBS at 4° C., repelleted, resuspended in 2 mL of D-PBS at 4° C., and placed on ice. […] The amount of drug uptake was measured by flow cytometry. Cells were analyzed with excitation at 488 nm (15 mW Ar ion laser), with emision monitored between 570 and 600 nm. Instrument settings were optimized for the cell line and held constant for all experiments; 10,000 cells were analyzed for each sample's anthracycline fluorescence. The data are presented as the mean fluorescence for each condition divided by the background, drug-free mean fluorescence.
Concentration of targeted drug relative to DOX and DOXSF in cells was determined from emission of the DOX fluorophore.

[4] = biological target: T1, ανβ3 integrin present on viable MDA-MB-435 cells (Homo sapiens, UniProt P05106+P06756); test: Vitronectin cell adhesion (competition) assay; type: cell-based; conditions: MDA-MB-435 cell binding to vitronectin, 500 μM Mn2+; read-out: IC50 for inhibition of cell binding
T1 construct: endogenous in cells
From the text: The data are presented as the mean fluorescence for each condition with the background, drug-free cell fluorescence subtracted.

MDA-MB-435 cells [5] = test: Drug distribution by fluorescence microscopy; type: cell-based, human; conditions: for cellular distribution of fluorescence: 500 nM
Protocol: Furthermore, once the trigger has fired the DOX fluorophore should appear nuclear.
Analysis of drug distribution by fluorescence microscopy: MDA-MB-435 cells in log phase growth were dissociated with trypsin-EDTA and counted. Cells were suspended in media at 8.3×10^4 cells/mL and 3 mL of cell solution was aliquoted into 6 well plates and allowed to adhere overnight. The cells were treated with 0.5 μM DOX, DOXSF, or DOX-TEG-TAM for various amounts of time (5 min, 20 min, 40 min, 1 h, and 3 h). Drug treatment was accomplished by addition of 30 μL of 100× drug solution (50 μM) to 3 mL of media which was mixed and immediately added to the cells.
Following drug treatment, the media was removed and cells were washed once with 3 mL of serum- and phenol red-free RPMI 1640 at room temperature and 3 mL of the same media was then added back to each well. The cells were then immediately analyzed by fluorescence microscopy. Each condition was performed individually to minimize the amount of time between drug treatment and fluorescence detection.

[6] = Tolerance, acute toxicity and efficacy in mice; conditions: preliminary mouse in vivo formulation experiments

For `COc1cccc2c1C(=O)c1c(O)c3c(c(O)c1C2=O)C[C@@](O)(C(=O)CO)C[C@@H]3O[C@H]1C[C@H](NCNC(=O)c2ccccc2O)[C@H](O)[C@H](C)O1` [doxsaliform, N-(2-Hydroxybenzamido-methyl)-doxorubicin], which IC50 (MCF-7/ADR) is on record?
The IC50 was 0.8 µM.

What about the DOX/doxsaliform (MCF-7/ADR; fold increase in cytotoxicity, 4 h drug treatment) of the same compound?
Its DOX/doxsaliform is 10.

And the IC50 (MCF-7)?
Its IC50 is 80 nM.

And the DOX/doxsaliform (MCF-7; MCF-7, fold increase in cytotoxicity, 4 h drug treatment)?
The DOX/doxsaliform was 4.

What about the IC50 (MDA-MB-435 cells [1]; 4 h treatment) of the same compound?
Its IC50 is 50 nM.

And the IC50 [2]?
The IC50 was 80 nM.

And the DOX/doxsaliform ([2]; PC-3, fold increase in cytotoxicity, 4 h drug treatment)?
The DOX/doxsaliform was 4.

And the “RFU with 100 nM drug” value (MDA-MB-435 cells [3]; 30 min)?
The value was 1.88 RFU.

What about the “RFU with 500 nM drug” value (MDA-MB-435 cells [3]; 30 min) of the same compound?
The value was 5.55 RFU.

What about the “RFU with 1000 nM drug” value (MDA-MB-435 cells [3]; 30 min) of the same compound?
Its value is 9.23 RFU.

And the “fold uptake higher than acyclic-RGD-4C-DOXSF and DOX” value (MDA-MB-435 cells [3]; 4 h, 500 nM)?
Its value is 2 fold.

What about the “RFU with 100 nM drug” value (MDA-MB-435 cells [3]; 4 h) of the same compound?
Its value is 3.23 RFU.

And the “RFU with 500 nM drug” value (MDA-MB-435 cells [3]; 4 h)?
The value was 13.25 RFU.

And the “RFU with 1000 nM drug” value (MDA-MB-435 cells [3]; 4 h)?
Its value is 24.51 RFU.

What about the IC50 [4] of the same compound?
The IC50 was over 10 µM.

What about the localization pattern (MDA-MB-435 cells [5]; control experiment, 0.5 μM) of the same compound?
Its localization pattern is “exclusively nuclear”.

With `COc1cccc2c1C(=O)c1c(O)c3c(c(O)c1C2=O)C[C@@](O)(C(=O)CO)C[C@@H]3O[C@H]1C[C@H](N)[C@H](O)[C@H](C)O1` [doxorubicin, reference compound] as the compound, how does the IC50 (MCF-7/ADR; Homo sapiens, NCI/ADR-RES) read?
The IC50 was 8 µM.

What about the IC50 (MCF-7; Homo sapiens, MCF7) of the same compound?
The IC50 was 300 nM.

And the IC50 (MDA-MB-435 cells [1]; Homo sapiens, MDA-MB-435, 20 min, 20 min treatment)?
The IC50 was 800 nM.

What about the IC50 (MDA-MB-435 cells [1]; Homo sapiens, MDA-MB-435, 1 h treatment) of the same compound?
Its IC50 is 300 nM.

And the IC50 (MDA-MB-435 cells [1]; Homo sapiens, MDA-MB-435, 4 h treatment)?
The IC50 was 120 nM.

What about the IC50 [2] of the same compound?
Its IC50 is 300 nM.

And the “RFU with 100 nM drug” value (MDA-MB-435 cells [3]; 30 min)?
The value was 1.23 RFU.

And the “RFU with 500 nM drug” value (MDA-MB-435 cells [3]; 30 min)?
Its value is 2.12 RFU.

What about the “RFU with 1000 nM drug” value (MDA-MB-435 cells [3]; 30 min) of the same compound?
Its value is 3.21 RFU.

What about the “fold uptake more than acyclic-RGD-4C-DOXSF” value (MDA-MB-435 cells [3]; 1 h drug treatment) of the same compound?
The value was 3 fold.

What about the “RFU with 100 nM drug” value (MDA-MB-435 cells [3]; 4 h) of the same compound?
The value was 1.90 RFU.

And the “RFU with 500 nM drug” value (MDA-MB-435 cells [3]; 4 h)?
The value was 5.88 RFU.

What about the “RFU with 1000 nM drug” value (MDA-MB-435 cells [3]; 4 h) of the same compound?
Its value is 12.03 RFU.

And the IC50 [4]?
Its IC50 is over 10 µM.

What about the “cellular distribution of fluorescence” value (MDA-MB-435 cells [5]; 20 min) of the same compound?
Its value is “observed in the nucleus”.

What about the “cellular distribution of fluorescence” value (MDA-MB-435 cells [5]; 3 h) of the same compound?
The value was “exclusively nuclear”.

What does the source list for `CC/C(=C(/c1ccc(O)cc1)c1ccc(OCCN(C)CCOCCOCCO/N=C/c2ccc(O)c(C(=O)NCN[C@H]3C[C@H](O[C@H]4C[C@](O)(C(=O)CO)Cc5c(O)c6c(c(O)c54)C(=O)c4c(OC)cccc4C6=O)O[C@@H](C)[C@H]3O)c2)cc1)c1ccccc1` [11c, E/Z-N-(2-Hydroxy-5-{[2-(2-{2-[(2-{4-[1-(4-hydroxy-phenyl)-2-phenyl-but-1-enyl]-phenoxy}-ethyl)-methyl-amino]-ethoxy}-ethoxy)-ethoxyimino]-methyl}-benzamide)-doxorubicin]?
acute toxicity [6]: substantially less than that of doxoform; cellular distribution of fluorescence (MDA-MB-435 cells [5]; 20 min): cytosolic fluorescence was observed; cellular distribution of fluorescence (MDA-MB-435 cells [5]; 3 h): predominantly nuclear
